Drawing on patent US20110301142A1, “ANTAGONISTS OF LYSOPHOSPHATIDIC ACID RECEPTORS” (priority 2008, published 2011), this text covers IC50 for 21 compounds.

Where only a bound is given, the exact number is not on record here.

In one assay the target is T1, human LPA1 (Homo sapiens, UniProt Q92633).
T1 construct: the full-length cDNA for human LPA1 was obtained by PCR of the reverse transcription reaction; expressed in transfected cells
Put plainly: LPA1 calcium flux assay (HLPA1 Ca Flux). The assay is classed as cell-based. The conditions noted are these: Human LPA1 expressing CHO cells, stimulated with 10 nM LPA. Here is the method: A 1.1 kb cDNA encoding the human LPA1 receptor was cloned from human lung. Human lung RNA (Clontech Laboratories, Inc. USA) was reverse transcribed using the RETROscript kit (Ambion, Inc.) and the full-length cDNA for human LPA1 was obtained by PCR of the reverse transcription reaction. The nucleotide sequence of the cloned human LPA1 was determined by sequencing and confirmed to be identical to the published human LPA1 sequence (An et al. Biochem. Biophys. Res. Commun. 231:619 (1997). The cDNA was cloned into the pcDNAS/FRT expression plasmid and transfected in CHO cells using lipofectamine 2000 (Invitrogen Corp., USA). Clones stably expressing human LPA1 were selected using hygromycin and identified as cells that show Ca-influx in response to LPA.
(§1) Human LPA1 or LPA3 expressing CHO cells are seeded at 20,000-45,000 cells per well in a 96-well poly-D-lysine coated plate one or two days before the assay. Prior to the assay, the cells are washed once with PBS and then cultured in serum-free media overnight. On the day of the assay, a calcium indicator dye (Calcium 4, Molecular Devices) in assay buffer (HBSS with Ca^2+ and Mg^2+ and containing 20 mM Hepes and 0.3% fatty-acid free human serum albumin) is added to each well and incubation continued for 1 hour at 37° C. 10 μl of test compounds in 2.5% DMSO are added to the cells and incubation continued at room temperature for 30 minutes. Cells are the stimulated by the addition of 10 nM LPA and intracellular Ca^2+ measured using the Flexstation 3 (Molecular Devices). IC50s are determined using Graphpad prism analysis of drug titration curves.
(Calcium assays in cells follow changes in intracellular calcium, usually with a dye or a luminescent sensor.)

The target of another assay is T2, human LPA3 (Homo sapiens, UniProt Q9UBY5).
T2 construct: The full-length cDNA fragment for human LPA3 was obtained by PCR from the vector; expressed in transfected cells; cDNA from the Missouri S&T cDNA Resource Center
T2 sequence (Q9UBY5 1-353): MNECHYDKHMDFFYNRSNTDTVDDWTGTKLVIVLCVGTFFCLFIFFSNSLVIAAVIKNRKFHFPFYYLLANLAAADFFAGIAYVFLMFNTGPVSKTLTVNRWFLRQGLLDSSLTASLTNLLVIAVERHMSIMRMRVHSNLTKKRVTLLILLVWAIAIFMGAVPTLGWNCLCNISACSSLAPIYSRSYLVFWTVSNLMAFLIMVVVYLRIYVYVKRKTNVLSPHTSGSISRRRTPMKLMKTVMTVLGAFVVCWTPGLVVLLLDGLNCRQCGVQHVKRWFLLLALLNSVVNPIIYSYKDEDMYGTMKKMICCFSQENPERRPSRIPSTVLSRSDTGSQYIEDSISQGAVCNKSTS
Put plainly: LPA3 calcium flux assay. The conditions noted are these: Human LPA3 expressing CHO cells, stimulated with 10 nM LPA; read-out: HLPA3 Ca Flux IC50. It counts as cell-based. On the procedure:
A vector containing the human LPA3 receptor cDNA was obtained from the Missouri S&T cDNA Resource Center (www.cdna.org). The full-length cDNA fragment for human LPA3 was obtained by PCR from the vector. The nucleotide sequence of the cloned human LPA3 was determined by sequencing and confirmed to be identical to the published human LPA3 sequence (NCBI accession number NM 012152). The cDNA was cloned into the pcDNA5/FRT expression plasmid and transfected in CHO cells using lipofectamine 2000 (Invitrogen Corp., USA). Clones stably expressing human LPA3 were selected using hygromycin and identified as cells that show Ca-influx in response to LPA.
as §1

T1 sequence (Q92633 whole entry): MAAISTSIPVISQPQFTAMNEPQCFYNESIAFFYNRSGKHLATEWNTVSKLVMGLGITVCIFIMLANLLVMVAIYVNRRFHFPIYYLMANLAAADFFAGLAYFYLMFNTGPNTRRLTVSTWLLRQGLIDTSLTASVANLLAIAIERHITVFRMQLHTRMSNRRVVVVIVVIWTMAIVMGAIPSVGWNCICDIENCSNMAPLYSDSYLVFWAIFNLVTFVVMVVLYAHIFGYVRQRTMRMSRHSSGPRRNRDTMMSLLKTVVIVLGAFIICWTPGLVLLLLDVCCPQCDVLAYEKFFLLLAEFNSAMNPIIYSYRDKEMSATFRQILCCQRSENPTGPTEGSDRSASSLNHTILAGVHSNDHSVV

Turning to `Cc1noc(-c2ccc(-c3ccc(C(C)C(=O)O)cc3)cc2)c1NC(=O)O[C@H](C)c1ccccc1Cl` (single isomer, unassigned) [Compound 1-127], the values for the IC50 at human LPA1 and at human LPA3 were under 0.3 µM and 0.3 to 1 µM, respectively.

In the case of `Cc1noc(-c2ccc(-c3ccc(C(C)C(=O)O)cc3)cc2)c1NC(=O)O[C@H](C)c1ccccc1Cl` (single isomer, unassigned) [Compound 1-128], the values for the IC50 on human LPA1 and on human LPA3 were under 0.3 µM and 1 to 50 µM, respectively.

As to `Cc1noc(-c2ccc(Cn3cnc(C(=O)O)n3)cc2)c1NC(=O)OC(C)c1ccccc1Cl` (stereo not drawn) [Compound 1-1, 1-(4-{4-[1-(2-Chloro-phenyl)-ethoxycarbonylamino]-3-methyl-isoxazol-5-yl}-benzyl)-1H-[1,2,4]triazole-3-carboxylic acid], the IC50 (commonly the point on the concentration scale where inhibition reaches its midpoint) at human LPA1 was under 0.3 µM; on human LPA3, 1 to 50 µM.

With `Cc1noc(-c2ccc(Cn3cncc3C(=O)O)cc2)c1NC(=O)OC(C)c1ccccc1Cl` (stereo not drawn) [Compound 1-3, 3-(4-{4-[1-(2-Chloro-phenyl)-ethoxycarbonylamino]-3-methyl-isoxazol-5-yl}-benzyl)-3H-1-imidazole-4-carboxylic acid], the 50% inhibitory concentration (IC50) at human LPA1 was under 0.3 µM; at human LPA3, 1 to 50 µM.

Turning to `Cc1noc(-c2ccc(Cn3ncc(C(=O)O)c3C(F)(F)F)cc2)c1NC(=O)OC(C)c1ccccc1Cl` (stereo not drawn) [Compound 1-4, 1-(4-{4-[1-(2-Chloro-phenyl)-ethoxycarbonylamino]-3-methyl-isoxazol-5-yl}-benzyl)-5-trifluoromethyl-1H-pyrazole-4-carboxylic acid], the concentration for half-maximal inhibition (IC50) on human LPA1 is under 0.3 µM; at human LPA3, 1 to 50 µM.

As for `Cc1noc(-c2ccc(Cc3cccc(C(=O)O)c3)cc2)c1NC(=O)OC(C)c1ccccc1Cl` (stereo not drawn) [Compound 1-5, 3-(4-{4-[1-(2-Chloro-phenyl)-ethoxycarbonylamino]-3-methyl-isoxazol-5-yl}-benzyl)-benzoic acid], the figures for the half-inhibitory concentration (IC50) on human LPA1 and on human LPA3 were under 0.3 µM and 1 to 50 µM, respectively.

As to `COc1ccc(CC(=O)O)cc1Cc1ccc(-c2onc(C)c2NC(=O)OC(C)c2ccccc2Cl)cc1` (stereo not drawn) [Compound 1-7, [3-(4-{4-[1-(2-Chloro-phenyl)-ethoxycarbonylamino]-3-methyl-isoxazol-5-yl}-benzyl)-4-methoxy-phenyl]-acetic acid], the values for the IC50 on human LPA1 and at human LPA3 were 0.3 to 1 µM and 1 to 50 µM, respectively.

As for `Cc1noc(-c2ccc(Cn3cc(C(=O)O)cn3)cc2)c1NC(=O)OC(C)c1ccccc1Cl` (stereo not drawn) [Compound 1-9, 1-(4-{4-[1-(2-Chloro-phenyl)-ethoxycarbonylamino]-3-methyl-isoxazol-5-yl}-benzyl)-1H-pyrazole-4-carboxylic acid], the values for the IC50 on human LPA1 and on human LPA3 were under 0.3 µM and 1 to 50 µM, respectively.

Consider `Cc1noc(-c2ccc(COc3cccc(C(=O)O)c3)cc2)c1NC(=O)OC(C)c1ccccc1Cl` (stereo not drawn) [Compound 1-12, 3-(4-{4-[1-(2-Chloro-phenyl)-ethoxycarbonylamino]-3-methyl-isoxazol-5-yl}-benzyloxy)-benzoic acid], for which the IC50 on human LPA1 is under 0.3 µM; on human LPA3, 1 to 50 µM.

For the compound `Cc1noc(-c2ccc(Cc3ccc(C(=O)O)s3)cc2)c1NC(=O)OC(C)c1ccccc1Cl` (stereo not drawn) [Compound 1-15, 5-(4-{4-[1-(2-Chloro-phenyl)-ethoxycarbonylamino]-3-methyl-isoxazol-5-yl}-benzyl)-thiophene-2-carboxylic acid], the IC50 at human LPA1 is under 0.3 µM; at human LPA3, 1 to 50 µM.

For the compound `Cc1noc(-c2ccc(CSc3ccc(CC(=O)O)cc3)cc2)c1NC(=O)OC(C)c1ccccc1Cl` (stereo not drawn) [Compound 1-17, [4-(4-{4-[1-(2-Chloro-phenyl)-ethoxycarbonylamino]-3-methyl-isoxazol-5-yl}-benzylsulfanyl)-phenyl]-acetic acid], the figures for the IC50 at human LPA1 and at human LPA3 were under 0.3 µM and 1 to 50 µM, respectively.

With `Cc1noc(-c2ccc(CSc3ccccc3CC(=O)O)cc2)c1NC(=O)OC(C)c1ccccc1Cl` (stereo not drawn) [Compound 1-19, [2-(4-{4-[1-(2-Chloro-phenyl)-ethoxycarbonylamino]-3-methyl-isoxazol-5-yl}-benzylsulfanyl)-phenyl]acetic acid], the values for the IC50 at human LPA1 and at human LPA3 were under 0.3 µM and 1 to 50 µM, respectively.

On to `Cc1noc(-c2ccc(Cc3ccc(CC(=O)O)cc3)cc2)c1NC(=O)OC(C)c1ccccc1Cl` (stereo not drawn) [Compound 1-20, [4-(4-{4-[1-(2-Chloro-phenyl)-ethoxycarbonylamino]-3-methyl-isoxazol-5-yl}-benzyl)-phenyl]-acetic acid], for which the figures for the half-maximal inhibitory concentration (IC50) on human LPA1 and on human LPA3 were under 0.3 µM and 1 to 50 µM, respectively.

Consider `Cc1noc(-c2ccc(Cc3cccc(CC(=O)O)c3)cc2)c1NC(=O)OC(C)c1ccccc1Cl` (stereo not drawn) [Compound 1-21, [3-(4-{4-[1-(2-Chloro-phenyl)-ethoxycarbonylamino]-3-methyl-isoxazol-5-yl}-benzyl)-phenyl]acetic acid], for which the figures for the half-maximal inhibitory concentration (IC50) at human LPA1 and on human LPA3 were under 0.3 µM and 1 to 50 µM, respectively.

For the compound `Cc1noc(-c2ccc(-c3ccc(CC(=O)O)cc3)cc2)c1NC(=O)OC(C)c1ccccc1C(F)(F)F` (stereo not drawn) [Compound 1-23, (4′-{3-Methyl-4-[1-(2-trifluoromethyl-phenyl)-ethoxycarbonylamino]-isoxazol-5-yl}-biphenyl-4-yl)-acetic acid], the values for the IC50 at human LPA1 and on human LPA3 were under 0.3 µM and 1 to 50 µM, respectively.

With `Cc1noc(-c2ccc(-c3ccc(CC(=O)O)cc3)cc2)c1NC(=O)OC(C)c1cccc(C(F)(F)F)c1` (stereo not drawn) [Compound 1-24, (4′-{3-Methyl-4-[1-(3-trifluoromethyl-phenyl)-ethoxycarbonylamino]-isoxazol-5-yl}-biphenyl-4-yl)-acetic acid], the half-inhibitory concentration (IC50) lay within 0.3 to 1 µM at human LPA1 and 1 to 50 µM at human LPA3.

As for `Cc1noc(-c2ccc(-c3ccc(CC(=O)O)cc3)cc2)c1NC(=O)OC(C)c1ccc(Cl)cc1Cl` (stereo not drawn) [Compound 1-25, (4′-{4-[1-(2,4-Dichloro-phenyl)-ethoxycarbonylamino]-3-methyl-isoxazol-5-yl}-biphenyl-4-yl)-acetic acid], the IC50 on human LPA1 was under 0.3 µM; on human LPA3, 1 to 50 µM.

`Cc1noc(-c2ccc(-c3ccc(CC(=O)O)cc3)cc2)c1NC(=O)OC(C)c1ccccc1F` (stereo not drawn) [Compound 1-26, (4′-{4-[1-(2-Fluoro-phenyl)-ethoxycarbonylamino]-3-methyl-isoxazol-5-yl}-biphenyl-4-yl)-acetic acid]: the concentration for half-maximal inhibition (IC50) on human LPA1 was under 0.3 µM; at human LPA3, 1 to 50 µM.

Regarding `Cc1noc(-c2ccc(-c3ccc(CC(=O)O)cc3)cc2)c1NC(=O)OC(C)c1cccc(Br)c1` (stereo not drawn) [Compound 1-27, (4′-{4-[1-(3-Bromo-phenyl)-ethoxycarbonylamino]-3-methyl-isoxazol-5-yl}-biphenyl-4-yl)-acetic acid], the results for the half-inhibitory concentration (IC50) on human LPA1 and at human LPA3 were under 0.3 µM and 1 to 50 µM, respectively.

On to `COc1ccccc1C(C)OC(=O)Nc1c(C)noc1-c1ccc(-c2ccc(CC(=O)O)cc2)cc1` (stereo not drawn) [Compound 1-28, (4′-{4-[1-(2-Methoxy-phenyl)-ethoxycarbonylamino]-3-methyl-isoxazol-5-yl}-biphenyl-4-yl)-acetic acid], for which the half-inhibitory concentration (IC50) at human LPA1 is under 0.3 µM; on human LPA3, over 50 µM.

Regarding `COc1ccc(CC(=O)O)cc1-c1cccc(-c2onc(C)c2NC(=O)OC(C)c2ccccc2Cl)c1` (stereo not drawn) [Compound 1-30, (3′-{4-[1-(2-Chloro-phenyl)-ethoxycarbonylamino]-3-methyl-isoxazol-5-yl}-6-methoxy-biphenyl-3-yl)-acetic acid], the values for the half-inhibitory concentration (IC50) at human LPA1 and on human LPA3 were 0.3 to 1 µM and 1 to 50 µM, respectively.
